Measured values published in patent US9005678B1, “Pharmaceutical composition for treating cancer and use thereof” (Jiangsu Province Institute of Traditional Chinese Medicine, priority 2013, dated 2015).

Assays:
[1] = system: CIPN rats; assay: Von Frey test for mechanical allodynia in CIPN rats; assay type: in vivo, rat; conditions: oxaliplatin 4 mg/kg i.p.; 14 days after the experiment; P<0.05
Text: (§1) Animals were housed 3 per cage in a temperature- and humidity-controlled environment under a 12/12-h light/dark cycle. Food and water were freely available. All experimental procedures were approved by the Animal Experimental committee of Jiangsu Province Academy of Traditional Chinese Medicine. All efforts were made to minimize the number of animals used and their suffering.
(§2) (1) Animal Grouping: the rats were randomly divided into five groups by using randomized grouping method (N=10 rats/group):
(§3) Group 1: saline (control group)
(§4) (2) Modeling and Administration: The first day of drug treatment was referred to as d1. […] After the last administration, the rats were sacrificed. Spinal cord and L5 dorsal root ganglia were harvested from all experimental animals, and taken to make tissue sections, which were stained with Nissl staining to observe the extent of damage in neurons. The expressions of pain-related TRP ion channel proteins, TRPMS, TRPV1, and TRPA1mRNA, in dorsal root ganglion tissue were determined by qPCR assay. (4) Von Frey test for mechanical allodynia: According to the method described by Chaplan et al^[22], the mechanical allodynia was assessed by von Frey test. Rats were placed in a clear plastic box (22×12×22 cm) with a wire mesh floor and allowed to habituate for 15 min prior to testing. […] 3.

[2] = Body weight of CIPN rats (oxaliplatin-induced peripheral neuropathy model); assay type: in vivo, rat; conditions: oxaliplatin 4 mg/kg i.p. twice per week; after 7 days of modeling
Text: as §1, §2, §3, §4

[3] = system: TRPM8 mRNA; assay: TRPM8 mRNA expression in DRG by real-time PCR; assay type: in vivo, rat; conditions: L4-L6 DRG; oxaliplatin model group; P<0.01
Description: as §4, with “Withdrawal responses to the stimulation of von Frey filaments were recorded and paw withdrawal thresholds were determined by a modified up-down method. Each von Frey filament with equivalent force was measured for five times, and the time interval between simulations was 30 seconds, 3 or more times of positive reactions out of 5 simulations was deemed to be mechanical allodynia. […]” for “3.”
(§5) To elucidate the mechanism of the preventive effect of AC591 on oxaliplatin-induced peripheral neuropathy, we determined the expression of TRPM8, TRPV1 and TRPA1 mRNA in L4-L6 DRG using real-time PCR.

[4] = system: CT26 murine colorectal cancer cells; assay: Colorectal cancer subcutaneous xenograft, tumor volume; assay type: in vivo, Balb/c mice; conditions: oxaliplatin 5 mg/kg i.p.; days 4 and 7; P<0.05
Description: Experimental Animals and Cell Lines: Six-week-old Balb/c mice weighing (16±2) g, bisexual each half, were purchased from Shanghai Slac Laboratory Animal Center and kept in SPF Laboratory Animal Room in Institute of Chinese Medicine and Pharmacy of Jiangsu Province. CT26 murine colorectal cancer cells were obtained from molecular biology laboratory of Institute of Chinese Medicine and Pharmacy of Jiangsu Province.
CT26 cells were cultured in Dulbecco's Modified Eagle Medium with 2.0 g/1 sodium bicarbonate plus 10% fetal bovine serum, 1% L-glutamine, 100 U/ml penicillin and 100 U/ml streptomycin. When the cells were approximately 80% confluent, the culture medium was discarded and washed with PBS. Trypsin was then introduced to perform digestion. When the connection between cells appeared loose, the trypsin was discarded, and cell culture medium was introduced to terminate the digestion. Cells were repeatedly and gently pipetted with a pipette so as to be taken off the wall to form cell suspension. It was collected into centrifuge tubes and centrifuged. The concentration of cell suspension was adjusted to 1×10^6/0.2 ml with 0.9% sterile saline. […]
Tumor volume and body weight were recorded every 3 days, and the tumor volume was calculated using the formula: tumor volume (mm^3)=length (mm)×width (mm)^2/2. […]

[5] = system: TRPA1 mRNA; assay: TRPA1 mRNA expression in DRG by real-time PCR; assay type: in vivo, rat; conditions: L4-L6 DRG; oxaliplatin model group; P<0.01
Description: as §4, with “Withdrawal responses to the stimulation of von Frey filaments were recorded and paw withdrawal thresholds were determined by a modified up-down method. Each von Frey filament with equivalent force was measured for five times, and the time interval between simulations was 30 seconds, 3 or more times of positive reactions out of 5 simulations was deemed to be mechanical allodynia. […]” for “3.”
as §5

[6] = system: DRG neurons; assay: Nissl staining of L5 dorsal root ganglia sections of CIPN rats; assay type: in vivo, rat; conditions: oxaliplatin 4 mg/kg i.p.
Description: as §4

[7] = cumulative dose of 1170 mg/m^2; cited from earlier work
[8] = system: TRPV1 mRNA; assay: TRPV1 mRNA expression in DRG by real-time PCR; assay type: in vivo, rat; conditions: L4-L6 DRG; oxaliplatin model group; P<0.01
Description: as §4, with “Withdrawal responses to the stimulation of von Frey filaments were recorded and paw withdrawal thresholds were determined by a modified up-down method. Each von Frey filament with equivalent force was measured for five times, and the time interval between simulations was 30 seconds, 3 or more times of positive reactions out of 5 simulations was deemed to be mechanical allodynia. […]” for “3.”
as §5

In the case of `O=C1[O][Pt]2([NH][C@@H]3CCCC[C@H]3[NH]2)[O]C1=O` [oxaliplatin], the “mechanical paw-withdrawing threshold, model group compared with control group” value [1] is reported as “significantly decreased”, the “body weight of rats in model group versus control group” value [2] is reported as “significantly lower” and the “expression of TRPM8 mRNA, increase in model group compared with control group” value [3] is reported as 2-4 fold. For the same molecule, the “tumour volumes compared with vehicle” value [4] was “significantly inhibited the increase of tumour volumes”, the “expression of TRPA1 mRNA, increase in model group compared with control group” value [5] was 2-4 fold and the “DRG neuron morphology in model group” value [6] was “part of cell bodies and nuclei of neurons greatly shrinked”. For the same molecule, the risk of neurotoxicity [7] was 50% and the “expression of TRPV1 mRNA, increase in model group compared with control group” value [8] was 2-4 fold.
